Results as given in paper PMC6337261, “Short Peptides with Uncleavable Peptide Bond Mimetics as Photoactivatable Caspase-3 Inhibitors” (Molecules, 2019).

Assays:
caspase-3 [1] = test: Competitive ABPP with bisulfite aldehyde quenching; assay type: biochemical
Text: (§1) The presence of a ψ(CH2NH) peptide with benzophenone or UV irradiation alone was not sufficient for inhibition, but all needed to be present to block the caspase-3 active site (Figure 3G,H). We hypothesized that the active species is a peptide aldehyde, formed by oxidation of the ψ(CH2NH) moiety (see also discussion in Section 3). To support this hypothesis, we performed an experiment in which this aldehyde was trapped by sodium bisulfite, forming a sodium bisulfite adduct.
Compounds were incubated with or without irradiation (10 min) in PBS with or without 10 mM NaHSO3 and incubated for another 20 min before addition to caspase-3. After 30 min, ABP 13 was added (final concentration 1 μM) to label residual caspase activity. The samples were incubated for 30 min at room temperature, after which 1/3rd volume of 4× Laemmli buffer was added. Samples were processed in the same way as under Section 4.4.1.
(§2) Figure 3 Non-covalent inhibition of caspase-3 by compounds 9 and 10. (A) Fluorescent labeling of caspase-3 by ψ(CH2NH) peptides 9–10 and triazolo peptides 11–12. […] (B) Deconvoluted ESI-MS of caspase-3. (C) Deconvoluted ESI-MS of caspase-3 after incubation with covalent activity-based probe (ABP) 13. Note that the active site, located on the large subunit, is modified. (D) Deconvoluted ESI-MS of caspase-3 after irradiation in the presence of benzophenone ψ(CH2NH) 10a, not resulting in covalent modification. […] (F) Structures of ψ(CH2NH) peptides 14 and 15 without photocrosslinker. (G) UV irradiation of ψ(CH2NH) peptides 14 and 15 in the presence of benzophenone leads to inhibition of caspase-3, as monitored by competitive ABPP. […] Ac-DEVD-aldehyde (100 nM) was used as a control compound, whereas 9a and 10a (10 μM) were irradiated for 10 min and reacted with sodium bisulfite for an additional 20 min before 30 min incubation with caspase-3 and read-out with a fluorescent caspase ABP.

caspase-3 [2] = test: Competitive ABPP with ψ(CH2NH) peptides irradiated in presence of spiked-in benzophenone; assay type: biochemical; conditions: for Inhibition of caspase-3 after irradiation with benzophenone: irradiated in presence of an equimolar amount (1 eq) of benzophenone
Text: as §1
(§3) Although this points towards a cyclization rather than reaction with a water molecule, it is not clear whether it leads to a potent caspase inhibitor. […] Therefore, cyclization seemed improbable, as this would most likely lead to a shift in retention time. We hypothesized that irradiation could potentially lead to oxidation of a very small amount of the ψ(CH2NH) moiety with benzophenone as a photosensitizer, resulting in minute quantities of aldehydes that were not detected on LC-MS, but were sufficient for caspase-3 inhibition. Oxidation of secondary amines under influence of benzophenone has been reported before. […] Note that triazoles cannot undergo this transformation, further explaining their inactivity. The oxidation hypothesis was supported by an experiment in which ψ(CH2NH) peptides 14 and 15, not containing a benzophenone, were irradiated in the presence of 1 eq of spiked-in benzophenone (Figure 3G–I).
Caspase-3, produced in E. coli and purified as described before, was reacted in PBS with 1 mM DTT. Samples were combined with the indicated probe and irradiated with a handheld UV lamp at 365 nm for 30 min at room temperature. […]
Figure 3 Non-covalent inhibition of caspase-3 by compounds 9 and 10. […] (G) UV irradiation of ψ(CH2NH) peptides 14 and 15 in the presence of benzophenone leads to inhibition of caspase-3, as monitored by competitive ABPP. […] Ac-DEVD-aldehyde (100 nM) was used as a control compound, whereas 9a and 10a (10 μM) were irradiated for 10 min and reacted with sodium bisulfite for an additional 20 min before 30 min incubation with caspase-3 and read-out with a fluorescent caspase ABP.

caspase-3 [3] = test: Gel-based competitive ABPP on recombinant caspase-3; assay type: biochemical; conditions: for Inhibition of caspase-3 activity (caspase ABP labeling): PBS with 1 mM DTT, fluorescent ABP read-out on gel; for Inhibition of caspase-3 (competitive ABPP, Figure S1): triazolo peptides at 100 μM
Protocol: (§4) To check whether our probes function as inhibitors, competitive ABPP [28] was performed. Recombinant caspase-3 was incubated with probes 9a–10c, 11a and 12a with or without irradiation at 365 nm, followed by labeling of residually active caspase-3 with the fluorescent, caspase-directed activity-based probe (ABP) SV149, a tetramethylrhodamine derivative of KMB-01 [29]. Caspase activity itself was not affected by UV irradiation, as shown by bands of equal intensity with and without UV light (Figure 2A). […] To confirm inhibition, we also performed substrate cleavage assays using the fluorogenic aminomethyl coumarin substrate Ac-DEVD-AMC. […] Inhibition of active caspases could also be achieved in an apoptotic cell lysate (Figure 2D).
(§5) Caspase-3, produced in E. coli and purified as described before, was reacted in PBS with 1 mM DTT. Samples were combined with the indicated probe and irradiated with a handheld UV lamp at 365 nm for 30 min at room temperature. For competition experiments with ‘pre-activation,’ the indicated probes were irradiated for 30 min prior to addition to caspase-3, and incubated for an additional 30 min. Next, ABP 13 was added (final concentration 1 μM) to label residual caspase-3 activity. The samples were incubated for 30 min at room temperature, after which 1/3rd volume of 4× Laemmli buffer was added. Samples were heated at 95 °C for 2 min and resolved by 15% SDS-PAGE. Gels were scanned using a Typhoon Trio+ fluorescent scanner with excitation at 532 nm and an emission filter of 580 nm. Gel images were processed with ImageJ (background subtraction with rolling ball radius of 50 pixels and automated contrast adjustment).
(§6) Figure 2 Inhibition of caspase-3. (A) Competitive activity-based protein profiling (ABPP) experiments using ψ(CH2NH) or triazolo peptide derivatives 9–12 with or without irradiation. Compounds 9a–12a were used at 10 μM final concentration, 9b, 9c, 10b and 10c at 100 μM. Inh = caspase inhibitor biotin-DEVD-AOMK, used at 100 nM concentration. (B) Representative progress curves of fluorescence produced by Ac-DEVD-AMC (50 μM) cleavage by caspase-3, irradiated with or without 10 μM of the indicated compounds. (C) Bar graph of residual caspase-3 activity of replicate experiments (n = 2) of those in (B). (D) Inhibition of executioner’s caspase-3 and -7 in lysates of HEK293 cells, treated with cytochrome c/dATP to induce apoptosis.

caspase-3 [4] = test: Competitive ABPP with UV pre-activation of the probes; assay type: biochemical; conditions: compound irradiated at 365 nm for 30 min, light source removed, then added to caspase-3 for 30 min; fluorescent ABP read-out
Protocol: (§7) Compounds were irradiated with UV light of 365 nm for 30 min and after removal of the light source added to caspase-3. Residual caspase activity was measured by using a fluorescent caspase ABP as in our previous experiments above.
as §5, §2

[5] = LC-MS analysis of probes before and after UV irradiation; assay type: physicochemical; conditions: irradiation at 365 nm, gradient 10% to 95% acetonitrile with 0.1% formic acid
Protocol: as §7, §3
All materials were purchased from Sigma Aldrich GmbH (GmbH, Darmstadt, Germany), Carl Roth GmbH + Co. KG (Karlsruhe, Germany), Thermo Fischer Scientific Inc. (Dreieich, Germany), Rapp Polymere GmbH (Tübingen, Germany), Applichem GmbH (Darmstadt, Germany), VWR International GmbH (Darmstadt, Germany), Merck KGaA (Darmstadt, Germany), CreoSalus Inc. (Louisville, KY, USA), and Iris Biotech GmbH (Marktredwitz, Germany) and were used as received, unless otherwise noted. TLC was performed on pre-coated ALUGRAM SIL G plates with detection by a handheld UV lamp (254 nm) and subsequent staining with potassium permanganate, p-anisaldehyde, ninhydrin or cerium ammonium molybdate. LC-MS analysis was performed on a Thermo LCQ Fleet HPLC-MS/MS system using a gradient of 10% to 95% acetonitrile containing 0.1% formic acid. NMR spectra were recorded on a Bruker Avance DRX 400 spectrometer with tetramethylsilane as internal standard. High resolution ESI-FTMS was performed on a Thermo Scientific LTQ Orbitrap Velos Pro mass spectrometer.

caspase-3 [6] = test: Fluorogenic substrate (Ac-DEVD-AMC) cleavage assay; assay type: biochemical; conditions: 10 μM compound, 2 nM caspase-3, 50 μM Ac-DEVD-AMC, HEPES pH 7.4 with 10 mM DTT, n = 2
Protocol: as §4
Purified caspase-3 (2 nM) was pre-activated by incubating in caspase reaction buffer (20 mm HEPES pH 7.4, 100 mM NaCl, 1 mM EDTA, 10% sucrose (w/v), 0.1% CHAPS (w/v), 10 mM DTT) for 15 min at 37 °C. Inhibitors 9a, 10a, and DMSO (control) were incubated with the caspase-3 at 10 μM final concentration. One set was irradiated with a handheld UV lamp at 365 nm for 30 min at room temperature whereas the control set was not irradiated. After 30 min, 99 μL of the sample was added to 1 μL of Ac-DEVD-AMC fluorogenic substrate (5 mM in dmso; 50 μM final concentration) in a black 96 well plate. The fluorescence intensity was read using an iD3 SpectraMax platereader (Molecular Devices; excitation wavelength: 340 nm; emission wavelength: 475 nm). The experiment was performed in duplicate. Activity was determined as the slope from the linear part of the progress curve by using GraphPad Prism.
as §6

[7] = 10 μM compound, irradiated at 365 nm for 30 min at room temperature
[8] = 100 μM compound, irradiated at 365 nm for 30 min at room temperature
[9] = 100 μM compound, non-irradiated

Substance	Inhibition of caspase-3 activity (caspase ABP labeling) (caspase-3 [3]; [7])	Inhibition of caspase-3 activity (caspase ABP labeling) (caspase-3 [3]; [8])	Inhibition of caspase-3 after UV pre-activation of compound (caspase-3 [4])	Change of probe upon UV irradiation (LC-MS before and after) [5]	other results
Ac-DEVD-aldehyde [Ac-DEVD peptide aldehyde, reference compound]					Inhibition of caspase-3 (caspase-3 [1]; 100 nM, without bisulfite, 30 min incubation with caspase-3, fluorescent ABP read-out): efficiently inhibits caspase-3
Acetyl-Asp-Glu-Val-Aspψ(CH2NH)-Ala-NH2 [compound 14]					Inhibition of caspase-3 after irradiation with benzophenone (caspase-3 [2]): still led to inhibition; Requirement for inhibition of caspase-3 (caspase-3 [2]; with or without benzophenone (BP) and UV irradiation): needs both BP and UV irradiation
Hexynoyl-Asp-Glu-Val-Aspψ(CH2NH)-Ala-NH2 [compound 15]					Inhibition of caspase-3 after irradiation with benzophenone (caspase-3 [2]): still led to inhibition

Continued, in another order:

Inhibition of caspase-3 activity (caspase ABP labeling) (caspase-3 [3]; [7])	Inhibition of caspase-3 activity (caspase ABP labeling) (caspase-3 [3]; [8])	Inhibition of caspase-3 after UV pre-activation of compound (caspase-3 [4])	Change of probe upon UV irradiation (LC-MS before and after) [5]	Substance	other results
some inhibition				Hexynoyl-Asp-Glu-Val-Asp(triazolo)-Ala-Bpa-Gly-NH2 [12a]	Inhibition of caspase-3 (competitive ABPP, Figure S1) (caspase-3 [3]): inhibition that is nearly quantitative
	did not show any inhibition			Hexynoyl-Asp-Glu-Val-Aspψ(CH2NH)-Ala-p-azido-Phe-NH2 [10c]	
	complete inhibition	still inhibited	loss of nitrogen	Hexynoyl-Asp-Glu-Val-Aspψ(CH2NH)-Ala-photoLeu-NH2 [10b]	Inhibition of caspase-3 activity (caspase ABP labeling) (caspase-3 [3]; [9]): no decrease in caspase ABP labeling
did not				Hexynoyl-Bpa-Asp-Glu-Val-Asp(triazolo)-Ala-NH2 [11a]	Inhibition of caspase-3 (competitive ABPP, Figure S1) (caspase-3 [3]): not show efficient inhibition
complete inhibition		still inhibited	did not show obvious changes	Hexynoyl-Bpa-Asp-Glu-Val-Aspψ(CH2NH)-Ala-NH2 [9a]	Inhibition of Ac-DEVD-AMC cleavage by caspase-3 (caspase-3 [6]; irradiated at 365 nm for 30 min at room temperature): complete blockage of substrate processing; Inhibition of Ac-DEVD-AMC cleavage by caspase-3 (caspase-3 [6]; not irradiated): little to no inhibition; Inhibition of caspase-3 by irradiated sample exposed to sodium bisulfite (caspase-3 [1]; 10 μM, irradiated 10 min, reacted with 10 mM NaHSO3 for 20 min, then 30 min with caspase-3, fluorescent ABP read-out): lose their inhibitory capacity; Inhibition of caspase-3 activity (caspase ABP labeling) (caspase-3 [3]; 10 μM compound, non-irradiated): no decrease in caspase ABP labeling
	did not show any inhibition			Hexynoyl-p-azido-Phe-Asp-Glu-Val-Aspψ(CH2NH)-Ala-NH2 [9c]	
	complete inhibition	still inhibited	loss of nitrogen	Hexynoyl-photoLeu-Asp-Glu-Val-Aspψ(CH2NH)-Ala-NH2 [9b]	Inhibition of caspase-3 activity (caspase ABP labeling) (caspase-3 [3]; [9]): no decrease in caspase ABP labeling
